# According to patent US8450527B2, “Amine derivative compounds for treating ophthalmic diseases and disorders” (Acucela Inc., priority 2007, dated 2013):
# How the values were obtained:
# [1] = target: T1, visual cycle isomerase (Bos taurus, UniProt Q28175); assay: In vitro isomerase inhibition assay, bovine RPE microsome membranes; assay type: biochemical; conditions: inhibition of 11-cis retinol formation; values given as ranges
# T1 construct: Bovine Retinal Pigment Epithelium (RPE) microsome membranes were the source of a visual cycle isomerase; from tissue; host or cells: bovine retinal pigment epithelium microsome membranes; CRALBP made in E. coli
# T1 sequence (Q28175 2-533 limits assumed): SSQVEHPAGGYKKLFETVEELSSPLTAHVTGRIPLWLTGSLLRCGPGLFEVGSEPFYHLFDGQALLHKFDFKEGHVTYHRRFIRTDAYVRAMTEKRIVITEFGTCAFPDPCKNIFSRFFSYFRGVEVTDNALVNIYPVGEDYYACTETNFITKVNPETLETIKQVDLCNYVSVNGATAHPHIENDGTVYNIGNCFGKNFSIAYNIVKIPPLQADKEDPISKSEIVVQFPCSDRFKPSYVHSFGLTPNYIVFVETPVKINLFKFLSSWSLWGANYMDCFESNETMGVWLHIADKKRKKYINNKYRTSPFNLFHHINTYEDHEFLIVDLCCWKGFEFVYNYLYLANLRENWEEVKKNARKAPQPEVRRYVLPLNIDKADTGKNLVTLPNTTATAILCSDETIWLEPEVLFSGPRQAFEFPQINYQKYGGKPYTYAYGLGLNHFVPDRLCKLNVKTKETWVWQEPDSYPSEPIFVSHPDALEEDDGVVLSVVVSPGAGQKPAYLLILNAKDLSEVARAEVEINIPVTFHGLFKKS
# Experimental: The capability of amine derivative compounds to inhibit the activity of a visual cycle isomerase was determined
# Isomerase inhibition reactions were performed essentially as described (Stecher et al., J. Biol. Chem. 274:8577-85 (1999); see also Golczak et al., Proc. Natl. Acad. Sci. USA 102:8162-67 (2005)). Bovine Retinal Pigment Epithelium (RPE) microsome membranes were the source of a visual cycle isomerase.
# Bovine RPE microsome membrane extracts were prepared according to methods described (Golczak et al., Proc. Natl. Acad. Sci. USA 102:8162-67 (2005)) and stored at −80° C. Crude RPE microsome extracts were thawed in a 37° C. water bath, and then immediately placed on ice. 50 ml crude RPE microsomes were placed into a 50 ml Teflon-glass homogenizer (Fisher Scientific, catalog no. 0841416M) on ice, powered by a hand-held DeWalt drill, and homogenized ten times upand down on ice under maximum speed. This process was repeated until the crude RPE microsome solution was homogenized. The homogenate was then subjected to centrifugation (50.2 Ti rotor (Beckman, Fullerton, Calif.), 13,000 RPM; 15360 Rcf) for 15 minutes at 4° C. The supernatant was collected and subjected to centrifugation at 42,000 RPM (160,000 Rcf; 50.2 Ti rotor) for 1 hour at 4° C. The supernatant was removed, and the pellets were suspended in 12 ml (final volume) cold 10 mM MOPS buffer, pH 7.0. The resuspended RPE membranes in 5 ml aliquots were homogenized in a glass-to-glass homogenizer (Fisher Scientific, catalog no.K885500-0021) to high homogeneity. Protein concentration was quantified using the BCA protein assay according to the manufacturer's protocol (Pierce, Rockford, Ill.). The homogenized RPE preparations were stored at −80° C.
# Recombinant human apo cellular retinaldehyde-binding protein (CRALBP) was cloned and expressed according to standard methods in the molecular biology art (see Crabb et al., Protein Science 7:746-57 (1998); Crabb et al., J. Biol. Chem. 263:18688-92 (1988)). Briefly, total RNA was prepared from confluent ARPE^19 cells (American Type Culture Collection, Manassas, Va.), cDNA was synthesized using an oligo(dT)12-18 primer, and then DNA encoding CRALBP was amplified by two sequential polymerase chain reactions (see Crabb et al., J. Biol. Chem. 263:18688-92 (1988); Intres, et al., J. Biol. Chem. 269:25411-18 (1994); GenBank Accession No. L34219.1). The PCR product was sub-cloned into pTrcHis2-TOPO TA vector according to the manufacturer's protocol (Invitrogen Inc., Carlsbad, Calif.; catalog no. K4400-01), and then the sequence was confirmed according to standard nucleotide sequencing techniques. Recombinant 6×His-tagged human CRALBP was expressed in One Shot TOP 10 chemically competent E. coli cells (Invitrogen), and the recombinant polypeptide was isolated from E. coli cell lysates by nickel affinity chromatography using nickel (Ni) Sepharose XK16-20 columns for HPLC (Amersham Bioscience, Pittsburgh, Pa.; catalog no.17-5268-O2). The purified 6×His-tagged human CRALBP was dialyzed against 10 mM bis-tris-Propane (BTP) and analyzed by SDS-PAGE. The molecular weight of the recombinant human CRALBP was approximately 39 kDal.
# Amine derivative compounds and control compounds were reconstituted in ethanol to 0.1 M. Ten-fold serial dilutions (10^−2, 10^−3, 10^−4, 10^−5, 10^−6 M) in ethanol of each compound were prepared for analysis in the isomerase assay.
# The isomerase assay was performed in 10 mM bis-tris-propane (BTP) buffer, pH 7.5, 0.5% BSA (diluted in BTP buffer), 1 mM sodium pyrophosphate, 20 μM all-trans retinol (in ethanol), and 6 μM apo-CRALBP. The test compounds (2 μl) (final 1/15 dilution of serial dilution stocks) were added to the above reaction mixture to which RPE microsomes were added. The same volume of ethanol was added to the control reaction (absence of test compound). Bovine RPE microsomes (9 μl) (see above) were then added, and the mixtures transferred to 37° C. to initiate the reaction (total volume=150 μl). […]
# [2] = target: T2, isomerase (Mus musculus, UniProt Q91ZQ5); assay: In vivo murine isomerase assay (recovery of 11-cis-retinal after photobleaching); set-up: species or system CD-1 (albino) male mice; conditions: CD1 male mice, single oral dose 1 mg/kg, photobleaching 4 h post dosing
# T2 construct: The recovery of 11-cis-retinal after bleaching can be used to estimate the activity of isomerase in vivo; from tissue; host or cells: eye (RPE) of living CD-1 albino male mice
# T2 sequence (Q91ZQ5 1-533): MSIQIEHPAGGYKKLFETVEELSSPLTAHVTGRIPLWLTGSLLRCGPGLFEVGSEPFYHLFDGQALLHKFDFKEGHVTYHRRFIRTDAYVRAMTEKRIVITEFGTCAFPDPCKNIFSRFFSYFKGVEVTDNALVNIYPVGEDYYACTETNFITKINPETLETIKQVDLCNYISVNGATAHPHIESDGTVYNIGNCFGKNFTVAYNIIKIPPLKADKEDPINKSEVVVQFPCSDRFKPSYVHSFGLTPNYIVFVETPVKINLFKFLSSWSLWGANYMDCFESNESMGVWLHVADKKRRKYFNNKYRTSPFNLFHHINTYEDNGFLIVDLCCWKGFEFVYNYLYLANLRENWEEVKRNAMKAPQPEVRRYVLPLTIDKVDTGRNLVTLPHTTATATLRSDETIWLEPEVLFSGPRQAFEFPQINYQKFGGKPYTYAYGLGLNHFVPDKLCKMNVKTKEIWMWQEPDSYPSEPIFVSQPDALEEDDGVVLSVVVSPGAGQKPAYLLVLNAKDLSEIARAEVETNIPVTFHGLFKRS
# Experimental: The capability of amine derivative compounds to inhibit isomerase was determined by an in vivo murine isomerase assay. Brief exposure of the eye to intense light (“photobleaching” of the visual pigment or simply “bleaching”) is known to photo-isomerize almost all 11-cis-retinal in the retina. The recovery of 11-cis-retinal after bleaching can be used to estimate the activity of isomerase in vivo.
# Delayed recovery, as represented by lower 11-cis-retinal oxime levels, indicates inhibition of isomerization reaction. Procedures were performed essentially as described by Golczak et al., Proc. Natl. Acad. Sci. USA 102:8162-67 (2005). See also Deigner et al., Science, 244: 968-71 (1989); Gollapalli et al., Biochim Biophys Acta. 1651: 93-101 (2003); Parish, et al., Proc. Natl. Acad. Sci. USA, 14609-13 (1998); Radu, et al., Proc Natl Acad Sci USA 101: 5928-33 (2004).
# […] Mice were orally gavaged with the several of the amine derivative compounds described herein. After 1-48 hours in the dark, the mice were exposed to photobleaching of 5,000 lux of white light for 10 minutes. The mice were allowed to recover 2 hours in the dark. The animals were then sacrificed by carbon dioxide inhalation. Retinoids were extracted from the eye and the regeneration of 11-cis-retinal was assessed at various time intervals.
# All steps were performed in darkness with minimal redlight illumination (low light darkroom lights and redfiltered flashlights for spot illumination as needed) (see, e.g., Maeda et al., J. Neurochem 85:944-956, 2003; Van Hooser et al., J Biol Chem 277:19173-82, 2002). After the mice were sacrificed, the eyes were immediately removed and placed in liquid nitrogen for storage.
# The eyes were placed in 500 μL of bis-tris propane buffer (10 mM, pH ˜7.3) and 20 μL of 0.8M hydroxylamine (pH˜7.3). The eyes were cut up into small pieces with small iris scissors and then thoroughly homogenized at 30000 rpm with a mechanical homogenizer (Polytron PT 1300 D) in the tube until no visible tissue remained. 500 μL of methanol and 500 μL of heptane were added to each tube. The tubes were attached to a vortexer so that the contents were mixed thoroughly for 15 minutes in room temperature. The organic phase was separated from the aqueous phase by centrifugation for 10 min at 13K rpm, 4° C. 240 μL of the solution from the top layer (organic phase) was removed and transferred to clean 300 μl glass inserts in HPLC vials using glass pipette and the vials were crimped shut tightly.
# The samples were analyzed on an Agilent 1100 HPLC system with normal phase column: SILICA (Beckman Coutlier, dp 5 μm, […]). The running method has a flow rate of 1.5 ml/min; solvent components are 15% solvent 1 (1% isopropanol in ethyl acetate), and 85% solvent 2 (100% hexanes). Loading volume for each sample is 100 μl; detection wavelength is 360 nm. The area under the curve for 11-cis retinal oxime was calculated by Agilent Chemstation software and was recorded manually. Data processing was performed using Prizm software.
# Positive control mice (no compound administered) were sacrificed fully dark-adapted and the eye retinoids analyzed. Light (bleached) control mice (no compound administered) were sacrificed and retinoids isolated and analyzed immediately after light treatment. The animals were orally gavaged with 1 mg/kg compound, then “photo-bleached” (5000 Lux white light for 10 minutes) at 4, 24 and 48 hours after dosing, and returned to darkness to allow recovery of the 11-cis-retinal content of the eyes. Mice were sacrificed 2 hours after bleaching, eyes were enucleated, and retinoid content was analyzed by HPLC.
# A dose response in vivo isomerase inhibition study was performed with several of the amine derivative compounds described herein. Six-week old dark-adapted CD-1 (albino) male mice were orally gavaged with 0.03, 0.1, 0.3, 1 and 3 mg/kg of compound in sterile water as solution, and photobleached 4 hours after dosing. […]
IC50 [1],% Inhibition 1 mg/kg 4 h [2],Compound
1 to 10 µM,,"Cc1cccc(C)c1CCc1cccc(CCCN)c1 [Example 1, 3-(3-(2,6-dimethylphenethyl)phenyl)propan-1-amine]"
,14%,"NCCC(O)c1cccc(CCCCCCO)c1 (stereo not shown) [Example 59, 6-(3-(3-amino-1-hydroxypropyl)phenyl)hexan-1-ol]"
,100%,"CCCC(O)(CCC)CCc1cccc([C@@H](O)CCN)c1 [Example 70, (S)-4-(3-(3-amino-1-hydroxypropyl)phenethyl)heptan-4-ol]"
,67%,"CCCC(O)(CCC)CCc1cccc([C@H](O)CCN)c1 [Example 71, (R)-4-(3-(3-Amino-1-hydroxypropyl)phenethyl)heptan-4-ol]"
,70%,"NCCC(O)c1cccc(CCc2ccccc2)c1 (stereo not shown) [Example 85, 3-amino-1-(3-phenethylphenyl)propan-1-ol]"
,84%,"CC(C)CCCc1cccc(C(O)CCN)c1 (stereo not shown) [Example 90, 3-amino-1-(3-(4-methylpentyl)phenyl)propan-1-ol]"
,22%,"NCCOc1cccc(CCC2CCCCC2O)c1 (stereo not shown) [Example 99, 2-(3-(2-aminoethoxy)phenethyl)cyclohexanol]"
,9%,"NCCC(O)c1cccc(CCC2CCCCC2O)c1 (stereo not shown) [Example 100, 2-(3-(3-amino-1-hydroxypropyl)phenethyl)cyclohexanol]"
,79%,"CCCC(C)(O)CCc1cccc(C(O)CCN)c1 (stereo not shown) [Example 109, 1-(3-(3-amino-1-hydroxypropyl)phenyl)-3-methylhexan-3-ol]"
,61%,"NCCC(O)c1cccc(CCC2CCCCO2)c1 (stereo not shown) [Example 110, 3-amino-1-(3-(2-(tetrahydro-2H-pyran-2-yl)ethyl)phenyl)propan-1-ol]"
,87%,"CCC(O)(CC)CCc1cccc(C(O)CCN)c1 (stereo not shown) [Example 113, 1-(3-(3-amino-1-hydroxypropyl)phenyl)-3-ethylpentan-3-ol]"
,6%,"CCCC(O)(CCC)CCc1cccc(SCCN)c1 [Example 134, 4-(3-(2-aminoethylthio)phenethyl)heptan-4-ol]"
,87%,"CCCC(O)(CCC)CCc1cc(C(O)CCN)ccc1F (stereo not shown) [Example 140, 4-(5-(3-amino-1-hydroxypropyl)-2-fluorophenethyl)heptan-4-ol]"
,0%,"NCC#Cc1cccc(CS(=O)(=O)C2CCCCC2)c1 [Example 157, 3-(3-(cyclohexylsulfonylmethyl)phenyl)prop-2-yn-1-amine]"
,0%,"NCCOc1cccc(C(=O)NC2CCCCC2)c1 [Example 164, 3-(2-aminoethoxy)-N-cyclohexylbenzamide]"
,9%,"NCCCc1cccc(CCC2CCCCC2O)c1 (stereo not shown) [Example 187, 2-(3-(3-aminopropyl)phenethyl)cyclohexanol]"
